The target in one test is T1, CDK9 (Homo sapiens, UniProt P50750).
T1 construct: full-length human kinases from Carna Biosciences; purchased Carna Biosciences 04-110
Put plainly: Kinase TR-FRET assay, CDK9. The class given is biochemical. Particulars: full-length human kinase, 10 μM ATP. Summed up: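 Full-length human CDK9 (0.9 ng/μl) incubated 100 min at room temperature with 10 μM ATP, 100 nM ULight-MBP peptide and compound (0.1 nM–30 μM) in 50 mM HEPES pH 7.4, 1 mM EGTA, 10 mM MgCl2, 2 mM DTT, 0.01% Tween20. Stopped with 10 mM EDTA, then 1 nM Eu-anti-phospho-Thr232 MBP antibody added for 1 h. TR-FRET read at 665/620 nm with 340 nm excitation.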
(In general: In TR-FRET formats the signal depends on donor and acceptor labels being close together.)

The target in test [1] is T2, His-TEV-DYRK1A Kinase domain (aa127-485) (Homo sapiens, UniProt Q13627).
T2 construct: His-TEV-DYRK1A Kinase domain (aa127-485); His tag (N); TEV protease cleavage site (N)
Description: Kinase ADP assay (ADP Hunter), DYRK1A kinase domain. Particulars: 20 μM ATP. The class given is biochemical. In a few lines: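 Compounds incubated 10 min at 30 °C with 20 nM enzyme, 40 μM peptide substrate and 20 μM ATP in pH 7.4 Hepes buffer with 10 mM MgCl2. ADP formed detected by ADP Hunter Plus reagents after 20 min at 30 °C, fluorescence read at 590 nm.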

The target in a further test is T3, CLK1 (Homo sapiens, UniProt P49759).
T3 construct: full-length human kinases from Carna Biosciences; purchased Carna Biosciences 04-126
T3 sequence (P49759 1-526 isoform P49759-3): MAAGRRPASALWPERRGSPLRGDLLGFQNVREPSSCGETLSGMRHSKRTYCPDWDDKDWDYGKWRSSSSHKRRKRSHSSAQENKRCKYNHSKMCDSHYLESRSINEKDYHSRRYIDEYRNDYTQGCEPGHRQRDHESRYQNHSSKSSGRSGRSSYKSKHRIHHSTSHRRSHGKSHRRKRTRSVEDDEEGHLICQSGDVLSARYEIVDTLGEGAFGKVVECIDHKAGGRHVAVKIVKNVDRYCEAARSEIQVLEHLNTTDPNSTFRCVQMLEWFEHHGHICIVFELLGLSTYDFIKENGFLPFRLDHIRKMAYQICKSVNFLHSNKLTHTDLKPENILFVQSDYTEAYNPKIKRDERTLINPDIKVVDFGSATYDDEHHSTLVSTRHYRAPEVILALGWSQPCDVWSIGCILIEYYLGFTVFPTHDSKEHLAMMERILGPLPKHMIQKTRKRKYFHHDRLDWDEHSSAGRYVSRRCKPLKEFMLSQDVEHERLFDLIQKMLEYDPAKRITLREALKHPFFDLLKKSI
Put plainly: Kinase TR-FRET assay, CLK1. The class given is biochemical. The following applies: full-length human kinase, 10 μM ATP. In a few lines:
(§1)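 Compounds tested at 0.1 nM to 30 μM in reaction buffer; reaction stopped with 10 mM EDTA. Phosphorylated MBP detected with 1 nM Europium-labelled anti-phospho-Thr232 antibody by TR-FRET.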

Another test concerns the target T4, DYRK1B (Homo sapiens, UniProt Q9Y463).
T4 construct: full-length human kinases from Carna Biosciences; purchased Carna Biosciences 04-131
Description: Kinase TR-FRET assay, DYRK1B. It counts as biochemical. The following applies: full-length human kinase, 10 μM ATP. Summed up: as §1

In test [2] the target is T5, DYRK1A (Homo sapiens, UniProt Q13627). Put plainly: Pharmacodynamic assay in RS4;11 tumor xenografts for inhibition of DYRK1A autophosphorylation. The class given is in vivo. Details: tumors were excised and proteins were extracted in tissue lysis buffer; from tissue; host or cells: RS4;11 human leukemia xenograft tumors grown in female SCID mice. The following applies: mouse, single oral administration, 2 h, RS4;11 tumors in SCID mice, read-out: phospho-Ser520-DYRK1A (% control at 2 h). Here is the method: For pharmacodynamics studies of inhibition of DYRK1A autophosphorylation, female SCID mice were injected subcutaneously with RS4; 11 human acute lymphoblastic leukemia cells. When tumors reached a size of 200-300 mm^3, mice were randomized into homogeneous groups of 3 and given a single oral administration of the compounds of the invention at doses of up to 100 mg/kg. […] The relative levels of phospho-Ser520-DYRK1A were assayed using western blotting. For this, lysates were diluted into Laemmli sample buffer (Bio-Rad) containing 5% v/v β-mercaptoethanol, heated for 5 min at 95° C., and resolved on Tris-glycine gels or NuPage Bis-Tris gels (Novex; Invitrogen). Biotinylated molecular weight standards (Cell Signaling Technology) were included in all gels. Proteins were transferred to nitrocellulose membranes (Hybond, ECL; Amersham), which were blocked in Tris-buffered saline/0.1% tween 20 (TBST) containing 5% milk, and probed at 4° C. overnight with anti-phospho-Ser520-DYRK1A antibody (Eurogentec SE6974-75; 0.23 μg/ml in 5% BSA) or anti DYRK1A antibody (Abnova H00001859; 0.5 μg/ml in 5% milk). Peroxidase-conjugated secondary antibodies were diluted into 5% milk and applied to membranes for 1 h at 20° C. Chemiluminescence detection was performed using the ECL plus western blotting detection kit (Amersham) and was recorded on ECL plus hyperfilm (Amersham). Blots were scanned using the Bio-Rad GS-800 calibrated densitometer and quantitative analysis of western blots was performed using TotalLab software (Amersham). The percentage inhibition of phospho-Ser520-DYRK1A as compared to the control tumors was calculated using the ratio between phospho-Ser520-DYRK1A and total DYRK1A signals at each dose.

The target of test [3] is T5, DYRK1A. Description: Kinase TR-FRET assay, DYRK1A. Further details: full-length, wild-type human DYRK1A (NM_001396) with an HA tag; expressed in transfected cells; host or cells: human U2-OS osteosarcoma cells, transient transfection of a pcDNA3.1 plasmid. Particulars: full-length human kinase, 10 μM ATP. It counts as biochemical. Summed up:
as §1

Here are results for seven molecules from patent publication US20180273528A1 (LES LABORATOIRES SERVIER, priority 2015, published 2018).

A value given as a limit tells only on which side of the number the result lay.

T1 sequence (P50750 whole entry): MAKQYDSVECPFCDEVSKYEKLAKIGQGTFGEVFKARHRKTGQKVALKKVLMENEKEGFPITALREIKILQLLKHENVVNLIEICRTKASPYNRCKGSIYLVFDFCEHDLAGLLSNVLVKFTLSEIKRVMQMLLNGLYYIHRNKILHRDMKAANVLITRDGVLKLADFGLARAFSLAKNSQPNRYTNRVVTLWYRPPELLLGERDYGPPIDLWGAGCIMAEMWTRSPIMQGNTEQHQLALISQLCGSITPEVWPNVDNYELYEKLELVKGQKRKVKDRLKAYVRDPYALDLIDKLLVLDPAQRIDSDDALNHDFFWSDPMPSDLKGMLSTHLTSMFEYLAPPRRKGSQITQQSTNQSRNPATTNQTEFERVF
T1 sequence (O60563 whole entry partner): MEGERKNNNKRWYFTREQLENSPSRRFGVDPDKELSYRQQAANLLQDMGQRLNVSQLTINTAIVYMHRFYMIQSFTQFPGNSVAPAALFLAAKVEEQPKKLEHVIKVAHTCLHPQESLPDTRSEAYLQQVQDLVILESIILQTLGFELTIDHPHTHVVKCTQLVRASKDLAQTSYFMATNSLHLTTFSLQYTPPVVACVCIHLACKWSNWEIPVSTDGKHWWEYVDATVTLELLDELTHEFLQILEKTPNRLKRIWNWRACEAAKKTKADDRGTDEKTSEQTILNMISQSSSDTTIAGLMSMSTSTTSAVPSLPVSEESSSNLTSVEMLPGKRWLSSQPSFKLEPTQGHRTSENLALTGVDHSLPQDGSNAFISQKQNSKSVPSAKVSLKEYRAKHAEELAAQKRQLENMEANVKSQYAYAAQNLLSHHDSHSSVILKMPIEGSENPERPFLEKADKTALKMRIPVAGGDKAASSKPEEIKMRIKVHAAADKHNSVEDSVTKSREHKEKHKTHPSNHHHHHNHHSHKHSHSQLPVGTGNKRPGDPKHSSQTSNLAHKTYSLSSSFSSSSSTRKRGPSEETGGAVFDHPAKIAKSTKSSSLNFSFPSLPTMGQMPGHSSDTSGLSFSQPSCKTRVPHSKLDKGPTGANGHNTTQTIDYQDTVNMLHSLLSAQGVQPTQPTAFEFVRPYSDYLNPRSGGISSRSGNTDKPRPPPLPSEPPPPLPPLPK
T4 sequence (Q9Y463 whole entry): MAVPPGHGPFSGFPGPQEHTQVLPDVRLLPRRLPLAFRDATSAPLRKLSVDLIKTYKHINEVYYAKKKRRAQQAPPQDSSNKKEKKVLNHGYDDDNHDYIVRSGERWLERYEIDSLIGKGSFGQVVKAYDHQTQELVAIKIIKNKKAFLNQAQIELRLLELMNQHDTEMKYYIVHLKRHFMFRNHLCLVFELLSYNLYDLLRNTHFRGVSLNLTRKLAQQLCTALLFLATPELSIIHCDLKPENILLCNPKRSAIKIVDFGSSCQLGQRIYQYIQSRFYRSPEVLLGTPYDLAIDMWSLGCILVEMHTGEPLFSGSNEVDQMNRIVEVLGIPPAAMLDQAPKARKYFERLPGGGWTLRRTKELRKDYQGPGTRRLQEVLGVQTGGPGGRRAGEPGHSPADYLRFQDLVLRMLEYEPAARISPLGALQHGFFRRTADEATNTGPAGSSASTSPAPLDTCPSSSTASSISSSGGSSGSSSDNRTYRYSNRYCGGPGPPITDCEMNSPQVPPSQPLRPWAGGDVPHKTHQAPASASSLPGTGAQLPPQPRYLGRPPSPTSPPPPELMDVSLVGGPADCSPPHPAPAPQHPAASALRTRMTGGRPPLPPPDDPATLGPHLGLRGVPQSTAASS

For `Cc1nc2ccc(-c3cc(N)nc(N)c3)nc2n1C1CC(F)C1` (stereo not drawn) [Example 103, 4-[3-(3-fluorocyclobutyl)-2-methyl-3H-imidazo[4,5-b]pyridin-5-yl]pyridine-2,6-diamine], the IC50 (as a rule, the concentration that gives 50% inhibition) is 0.666 µM against CDK9; 0.006 µM in test [1]; 0.015 µM against CLK1; 0.005 µM against DYRK1B; 0.006 µM on DYRK1A [3]. The response vs control in vivo at 3 mg/kg at DYRK1A [2] came out at 41%.
On to `Cc1nc2ccc(-c3cc(N)nc(N)c3)nc2n1CCCC(F)(F)F` [Example 71, 4-[2-methyl-3-(4,4,4-trifluorobutyl)-3H-imidazo[4,5-b]pyridin-5-yl]pyridine-2,6-diamine], for which the IC50 was determined as 1.41 µM against CDK9; 0.006 µM in test [1]; 0.016 µM on CLK1; 0.006 µM on DYRK1B; 0.006 µM against DYRK1A [3]. In addition, on DYRK1A [2], the response vs control in vivo at 3 mg/kg was found to be 33%.
In the case of `Cc1nc2ccc(-c3cc(N)nc(N)c3)nc2n1C[C@@H](C)Oc1ccccc1` (single isomer, unassigned) [Example 106], the IC50 on CDK9 is above 3 µM; in test [1], 0.012 µM; at CLK1, 0.019 µM; against DYRK1B, 0.006 µM; at DYRK1A [3], 0.008 µM. Also, the response vs control in vivo at 9 mg/kg at DYRK1A [2] (dose 9 mg/kg) was 46%.
For the molecule `Cc1nc2ccc(-c3cc(N)nc(N)c3)nc2n1Cc1ccoc1` [Example 42, 4-[3-(furan-3-ylmethyl)-2-methyl-3H-imidazo[4,5-b]pyridin-5-yl]pyridine-2,6-diamine], the 50% inhibitory concentration (IC50) against CDK9 turned out to be 2.94 µM; in test [1] it was 0.008 µM; at CLK1, 0.053 µM; against DYRK1B, 0.01 µM; at DYRK1A [3] it was 0.012 µM. Besides, the response vs control in vivo at 3 mg/kg on DYRK1A [2] is 35%.
`CCn1c(C)nc2ccc(-c3cc(N)nc(N)c3)nc21` [Example 154, 4-(3-ethyl-2-methyl-3H-imidazo[4,5-b]pyridin-5-yl)pyridine-2,6-diamine]: the 50% inhibitory concentration (IC50) against CDK9 was found to be 3.39 µM; in test [1], 0.007 µM; on CLK1, 0.023 µM; on DYRK1B, 0.002 µM; at DYRK1A [3], 0.004 µM. Moreover, on DYRK1A [2], the response vs control in vivo at 3 mg/kg turned out to be 28%.
`Cc1nc2ccc(-c3cc(N)nc(N)c3)nc2n1C1CC(F)(F)C1` [Example 101, 4-[3-(3,3-difluorocyclobutyl)-2-methyl-3H-imidazo[4,5-b]pyridin-5-yl]pyridine-2,6-diamine]: the IC50 on CDK9 came out at 1.26 µM; in test [1], 0.006 µM; against CLK1, 0.016 µM; on DYRK1B, 0.007 µM; at DYRK1A [3], 0.003 µM. Further, the response vs control in vivo at 3 mg/kg at DYRK1A [2] amounted to 25%.
Consider `Cc1nc2ccc(-c3cc(N)nc(N)c3)nc2n1C1CC1` [Example 9, 4-(3-cyclopropyl-2-methyl-3H-imidazo[4,5-b]pyridin-5-yl)pyridine-2,6-diamine], for which the IC50 was found to be 2.15 µM on CDK9; 0.007 µM in test [1]; 0.021 µM against CLK1; 0.006 µM on DYRK1B; 0.011 µM at DYRK1A [3]. The response vs control in vivo at 3 mg/kg on DYRK1A [2] came out at 44%.
